Data reported in PubChem BioAssay AID298 (DTP/NCI, 2004).
Several values for one entry are separate records, joined by “and”; a condition that tells them apart may be missing. Equal entries are not always repeated. Inconclusive results are not listed.

Test system: MX-1 breast xenograft, intrarenal, nude mice, tumor weight
Experiment: NCI In Vivo Anticancer Drug Screen. Data for tumor model Human Mammary Carcinoma MX-1 Xenograft (intrarenal inoculation) in NU/NU BALB/C (nude) mice
Conditions: endpoint: mean tumor weight change, higher = larger tumour
Outline: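 Antitumor activity is expressed as a T/C ratio. The treated group's tumor size or survival is compared against the vehicle-treated control group in mice bearing transplanted tumors.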

[1] = dose: 75.0 mg/kg/injection, schedule: Q04DX003 (sc), vehicle: saline
[2] = dose: 150.0 mg/kg/injection, schedule: Q04DX003 (sc), vehicle: saline
[3] = dose: 300.0 mg/kg/injection, schedule: Q04DX003 (sc), vehicle: saline
[4] = dose: 150.0 mg/kg/injection, schedule: Q04DX003 (sc), vehicle: saline with Tween-80
[5] = dose: 300.0 mg/kg/injection, schedule: Q04DX003 (sc), vehicle: saline with Tween-80
[6] = dose: 1200.0 mg/kg/injection, schedule: Q04DX003 (sc), vehicle: saline with Tween-80
[7] = dose: 50.0 mg/kg/injection, schedule: Q04DX003 (ip), vehicle: saline with Tween-80
[8] = dose: 100.0 mg/kg/injection, schedule: Q04DX003 (ip), vehicle: saline with Tween-80
[9] = dose: 30.0 mg/kg/injection, schedule: Q04DX003 (ip), vehicle: saline with Tween-80
[10] = dose: 12.5 mg/kg/injection, schedule: Q04DX003 (ip), vehicle: saline with Tween-80
[11] = dose: 25.0 mg/kg/injection, schedule: Q04DX003 (ip), vehicle: saline with Tween-80

## O=NNc1cnccn1
dose: 12.5 mg/kg/injection, schedule: Q04DX003 (ip), vehicle: water
  T/C: 53 % of control and 74 % of control
dose: 25.0 mg/kg/injection, schedule: Q04DX003 (ip), vehicle: water
  T/C: 26 % of control (2×) and 41 % of control
dose: 50.0 mg/kg/injection, schedule: Q04DX003 (ip), vehicle: water
  T/C: 7 % of control and 8 % of control and 16 % of control

## c1ccc2c(c1)[As]=c1ccccc1=[As]2 (stereo unspecified)
[1]
  T/C: 108 % of control
[2]
  T/C: 87 % of control
[3]
  T/C: 99 % of control

## CCOC(=O)C1=C(Nc2ccc(OC)cc2)C(N)=NC1=N
dose: 37.5 mg/kg/injection, schedule: Q04DX003 (ip), vehicle: suspension in saline
  T/C: 76 % of control
dose: 75.0 mg/kg/injection, schedule: Q04DX003 (ip), vehicle: suspension in saline
  T/C: 82 % of control
dose: 150.0 mg/kg/injection, schedule: Q04DX003 (ip), vehicle: suspension in saline
  T/C: 79 % of control and 103 % of control
dose: 300.0 mg/kg/injection, schedule: Q04DX003 (ip), vehicle: suspension in saline
  T/C: 47 % of control and 50 % of control
dose: 600.0 mg/kg/injection, schedule: Q04DX003 (ip), vehicle: suspension in saline
  T/C: 32 % of control

## CCCC(=O)OCc1cc(=O)n(C)c2c3c4c(cc12)c(C)cc(=O)n4CO3
dose: 50.0 mg/kg/injection, schedule: Q01DX010 (sc), vehicle: Klucel (hydroxypropylcellulose) (HPC)
  T/C: 79 % of control
dose: 100.0 mg/kg/injection, schedule: Q01DX010 (sc), vehicle: Klucel (hydroxypropylcellulose) (HPC)
  T/C: 75 % of control
dose: 200.0 mg/kg/injection, schedule: Q01DX010 (sc), vehicle: Klucel (hydroxypropylcellulose) (HPC)
  T/C: 64 % of control
dose: 400.0 mg/kg/injection, schedule: Q01DX010 (sc), vehicle: Klucel (hydroxypropylcellulose) (HPC)
  T/C: 66 % of control
dose: 800.0 mg/kg/injection, schedule: Q01DX010 (sc), vehicle: Klucel (hydroxypropylcellulose) (HPC)
  T/C: 61 % of control

## CC(=O)Nc1cscc1NC(C)=O
[4]
  T/C: 198 % of control
[5]
  T/C: 59 % of control
[6]
  T/C: 106 % of control

## NC(=O)c1[nH]cnc1O
[7]
  T/C: 96 % of control
[8]
  T/C: 112 % of control and 119 % of control
dose: 400.0 mg/kg/injection, schedule: Q04DX003 (ip), vehicle: saline with Tween-80
  T/C: 81 % of control
dose: 800.0 mg/kg/injection, schedule: Q04DX003 (ip), vehicle: saline with Tween-80
  T/C: 69 % of control

## CCCCN1C(=O)N(c2ccc(OCC)cc2)C2N(CCCC)C1C(C)(C)C2(C)C (stereo unspecified)
dose: 15.0 mg/kg/injection, schedule: Q04DX003 (ip), vehicle: saline with Tween-80
  T/C: 90 % of control
[9]
  T/C: 77 % of control
dose: 60.0 mg/kg/injection, schedule: Q04DX003 (ip), vehicle: saline with Tween-80
  T/C: 89 % of control
dose: 240.0 mg/kg/injection, schedule: Q04DX003 (ip), vehicle: saline with Tween-80
  T/C: 98 % of control

## CC(=O)NO
dose: 150.0 mg/kg/injection, schedule: Q04DX003 (ip), vehicle: water
  T/C: 78 % of control
dose: 300.0 mg/kg/injection, schedule: Q04DX003 (ip), vehicle: water
  T/C: 113 % of control
dose: 600.0 mg/kg/injection, schedule: Q04DX003 (ip), vehicle: water
  T/C: 79 % of control
dose: 1200.0 mg/kg/injection, schedule: Q04DX003 (ip), vehicle: water
  T/C: 74 % of control

## [Cl][Hg][Cl]
dose: 5.0 mg/kg/injection, schedule: Q04DX003 (ip), vehicle: saline
  T/C: 67 % of control

## Cc1cc2cc3cc(C)c(N)cc3nc2cc1N
dose: 200.0 mg/kg/injection, schedule: Q04DX003 (sc), vehicle: saline with Tween-80
  T/C: 161 % of control
dose: 400.0 mg/kg/injection, schedule: Q04DX003 (sc), vehicle: saline with Tween-80
  T/C: 106 % of control
dose: 800.0 mg/kg/injection, schedule: Q04DX003 (sc), vehicle: saline with Tween-80
  T/C: 107 % of control
dose: 1600.0 mg/kg/injection, schedule: Q04DX003 (sc), vehicle: saline with Tween-80
  T/C: 107 % of control

## Cn1c(=S)sc2nc3ccccc3n2c1=S
[9]
  T/C: 165 % of control
dose: 120.0 mg/kg/injection, schedule: Q04DX003 (ip), vehicle: saline with Tween-80
  T/C: 42 % of control

## O=[N+]([O-])c1ccc(N2CCOCC2)c2c1no[n+]2[O-]
[4]
  T/C: 99 % of control
[5]
  T/C: 55 % of control
dose: 600.0 mg/kg/injection, schedule: Q04DX003 (sc), vehicle: saline with Tween-80
  T/C: 74 % of control
[6]
  T/C: 63 % of control

## C=CC(C)NC(=S)NNC(=S)NC (stereo unspecified)
dose: 300.0 mg/kg/injection, schedule: Q04DX003 (sc), vehicle: saline + alcohol
  T/C: 85 % of control
dose: 600.0 mg/kg/injection, schedule: Q04DX003 (sc), vehicle: saline + alcohol
  T/C: 58 % of control
dose: 1200.0 mg/kg/injection, schedule: Q04DX003 (sc), vehicle: saline + alcohol
  T/C: 99 % of control

## COc1ccc(C(C)c2cc3c(cc2OC)OCO3)cc1 (stereo unspecified)
[10]
  T/C: 88 % of control
[11]
  T/C: 79 % of control
[7]
  T/C: 83 % of control
[8]
  T/C: 53 % of control

## COC1=C(C)C(=O)C2=C(C1=O)C(CO)N1C(C#N)C3CC4C(C1C2N1CCOC41)N3C (stereo unspecified)
dose: 0.9 mg/kg/injection, schedule: Q04DX003 (ip), vehicle: acid diluted with saline
  T/C: 55 % of control
dose: 1.25 mg/kg/injection, schedule: Q04DX003 (ip), vehicle: acid diluted with saline
  T/C: 35 % of control
dose: 1.5 mg/kg/injection, schedule: Q04DX003 (ip), vehicle: acid diluted with saline
  T/C: 19 % of control
dose: 2.5 mg/kg/injection, schedule: Q04DX003 (ip), vehicle: acid diluted with saline
  T/C: 17 % of control and 19 % of control
dose: 2.5 mg/kg/injection, schedule: Q04DX003 (ip), vehicle: saline + alcohol
  T/C: 50 % of control
dose: 5.0 mg/kg/injection, schedule: Q04DX003 (ip), vehicle: saline + alcohol
  T/C: 42 % of control

## CCN(CC)CC(C)(C)C(=O)/C=C/c1ccc(/C=C/C(=O)C(C)(C)CN(CC)CC)cc1
dose: 60.0 mg/kg/injection, schedule: Q04DX003 (ip), vehicle: saline
  T/C: 67 % of control

## CN(CCN(C)C(=O)CCOS(C)(=O)=O)C(=O)CCOS(C)(=O)=O
dose: 37.5 mg/kg/injection, schedule: Q04DX003 (sc), vehicle: saline
  T/C: 7 % of control
[1]
  T/C: -100 % of control
[2]
  T/C: -100 % of control
[3]
  T/C: -44 % of control

## Cc1cc(O)c2c(c1O)C(=O)C13C(=C2O)C(=O)C2C(O)C1C1C(O)C3C(=O)C3=C(O)c4c(O)cc(C)c(O)c4C(=O)C321 (stereo unspecified)
[10]
  T/C: 107 % of control
[11]
  T/C: 76 % of control

## OC1OC2COC(c3ccccc3)OC2C(O)C1O (stereo unspecified)
dose: 300.0 mg/kg/injection, schedule: Q04DX003 (sc), vehicle: water
  T/C: 57 % of control
dose: 600.0 mg/kg/injection, schedule: Q04DX003 (sc), vehicle: water
  T/C: 91 % of control
dose: 1200.0 mg/kg/injection, schedule: Q04DX003 (sc), vehicle: water
  T/C: 91 % of control
dose: 2400.0 mg/kg/injection, schedule: Q04DX003 (sc), vehicle: water
  T/C: 105 % of control

## O=C1C=CC(=CC=C2C=CN(CCCCCCCCCCCO)C=C2)C=C1
[10]
  T/C: 89 % of control
[11]
  T/C: 84 % of control
[7]
  T/C: 69 % of control

## NC(=O)C1C=CN(Cc2ccccc2)C=C1
[8]
  T/C: 62 % of control
dose: 200.0 mg/kg/injection, schedule: Q04DX003 (ip), vehicle: saline with Tween-80
  T/C: 64 % of control

## C=CCCC(=O)CCCC(=O)O[C@@H]1[C@@H]2[C@H](CC1(C)C)[C@H](O)[C@@]13O[C@@H]1[C@H](O)[C@@]1(CO1)[C@@]23C
dose: 0.4 mg/kg/injection, schedule: Q04DX003 (ip), vehicle: Klucel (hydroxypropylcellulose) (HPC)
  T/C: 79 % of control
dose: 0.8 mg/kg/injection, schedule: Q04DX003 (ip), vehicle: Klucel (hydroxypropylcellulose) (HPC)
  T/C: 82 % of control
dose: 1.6 mg/kg/injection, schedule: Q04DX003 (ip), vehicle: Klucel (hydroxypropylcellulose) (HPC)
  T/C: 92 % of control
dose: 3.2 mg/kg/injection, schedule: Q04DX003 (ip), vehicle: Klucel (hydroxypropylcellulose) (HPC)
  T/C: 81 % of control
dose: 100.0 micrograms/kg/injection, schedule: Q04DX003 (ip), vehicle: Klucel (hydroxypropylcellulose) (HPC)
  T/C: 120 % of control
dose: 200.0 micrograms/kg/injection, schedule: Q04DX003 (ip), vehicle: Klucel (hydroxypropylcellulose) (HPC)
  T/C: 97 % of control
dose: 400.0 micrograms/kg/injection, schedule: Q04DX003 (ip), vehicle: Klucel (hydroxypropylcellulose) (HPC)
  T/C: 89 % of control
dose: 800.0 micrograms/kg/injection, schedule: Q04DX003 (ip), vehicle: Klucel (hydroxypropylcellulose) (HPC)
  T/C: 121 % of control

## Nc1ncnc2c1ncn2C1OC(CO)C(O)C1O (stereo unspecified)
[2]
  T/C: 3 % of control and 23 % of control

## O=C(/C=C/c1cccnc1)/C=C/c1cccnc1
dose: 50.0 mg/kg/injection, schedule: Q04DX003 (ip), vehicle: Klucel (hydroxypropylcellulose) (HPC)
  T/C: 67 % of control
